Series [1] concerns Bacillus subtilis ATCC 6051. As to the kind of experiment: microbe, parasite or virus in culture. From the text:
(§1) We used methicillin-susceptible and methicillin-resistant S. aureus as representative pathogens and B. subtilis and S. epidermidis as additional Gram-positive bacteria, and we used E. coli as a Gram-negative control.

Series [2] has as its system Escherichia coli ATCC 10798. As to the kind of experiment: microbe, parasite or virus in culture.
From the text: as §1

The subject of series [3] is Staphylococcus aureus (MRSA) ATCC 700698. The series can be described thus: microbe, parasite or virus in culture.
From the text: as §1

Series [4] concerns Staphylococcus aureus (MSSA) ATCC 29213. As to the kind of experiment: microbe, parasite or virus in culture. As to conditions: ATCC29213|MSSA.
From the text: as §1

Series [5] concerns Staphylococcus epidermidis ATCC 14990. As to the kind of experiment: microbe, parasite or virus in culture.
From the text: as §1

For series [6], the system named is four Gram-positive bacteria. To be noted: Table 2.
From the text: as §1

The next series has as its system human red blood cells. The series can be described thus: Hemolytic assay. The class given is cell-based. From the text: We evaluated the hemolytic activity of the O-acyl isopeptide prodrugs and the corresponding teixobactin analogues with human red blood cells (Fig. S14–S21 ^†). We used Triton X-100 and melittin as positive controls and vancomycin and water (vehicle) as negative controls in the hemolysis assays.[9,25,26] […] In contrast, 0.002% polysorbate 80 had no effect on the hemolytic activity of Lys10–teixobactin and Leu10–teixobactin and little effect on the corresponding O-acyl isopeptide prodrug analogues. When we performed hemolysis assays with teixobactin, we observed no hemolysis up to 100 μg mL^−1 without polysorbate 80 and modest hemolysis (4%) at 100 μg mL^−1 with 0.002% polysorbate 80. We observed no hemolysis with vancomycin at concentrations up to 100 μg mL^−1, and we observed 26–30% hemolysis with 1.25 μg mL^−1 melittin with and without 0.002% polysorbate 80.

Where [7] appears, read: in the presence of 0.002% polysorbate 80.

Converted amounts (≈) assume the structure as drawn. Where two headings read alike, the source gives them in different places. Marks after values point to notes of the source that are not given here. Bounds are passed on as bounds.

Turning to `CN[C@H](CC(C)C)C(=O)N[C@H]1C(=O)N[C@@H](CC(N)=O)C(=O)N[C@H]2C(=O)N[C@H]3C(=O)N[C@H](C(=O)N[C@H](C(=O)O)c4cc(O)cc(O)c4-c4cc3ccc4O)[C@H](O)c3ccc(c(Cl)c3)Oc3cc2cc(c3O[C@@H]2O[C@H](CO)[C@@H](O)[C@H](O)[C@H]2O[C@H]2C[C@](C)(N)[C@H](O)[C@H](C)O2)Oc2ccc(cc2Cl)[C@H]1O` [Vancomycin, vancomycin, reference compound], the MIC in series [1] (ATCC6051, read-out: MIC Bacillus subtilis ATCC 6051, culture media containing 0% polysorbate 80) is 0.125 to 0.25 µg/mL (≈ 0.0863 to 0.173 µM); in series [1] (ATCC6051, read-out: MIC Bacillus subtilis ATCC 6051, culture media containing 0.002% polysorbate 80) it was 0.5 µg/mL (≈ 0.345 µM); in series [2] (ATCC10798, read-out: MIC Escherichia coli ATCC 10798, culture media containing 0% polysorbate 80), > 32 µg/mL; in series [2] (ATCC10798, read-out: MIC Escherichia coli ATCC 10798, culture media containing 0.002% polysorbate 80), > 8 µg/mL; in series [3] (Staphylococcus aureus, ATCC700698|MRSA, read-out: MIC Staphylococcus aureus (MRSA) ATCC 700698) it was 2 µg/mL (≈ 1.38 µM); in series [4] (read-out: MIC Staphylococcus aureus (MSSA) ATCC 29213, culture media containing 0% polysorbate 80), 0.5 µg/mL (≈ 0.345 µM). Moreover, the MIC was determined as 1 µg/mL (≈ 0.69 µM) in series [4] (read-out: MIC Staphylococcus aureus (MSSA) ATCC 29213, culture media containing 0.002% polysorbate 80); 1 µg/mL (≈ 0.69 µM) in series [5] (ATCC14990, read-out: MIC Staphylococcus epidermidis ATCC 14990, culture media containing 0% polysorbate 80); 2 µg/mL (≈ 1.38 µM) in series [5] (ATCC14990, read-out: MIC Staphylococcus epidermidis ATCC 14990, culture media containing 0.002% polysorbate 80). Also, the “MIC Staphylococcus aureus (MRSA) ATCC 700698” value in series [3] (culture media containing 0.002% polysorbate 80) is listed as 2 ^b μg mL^−1. The “MICs (range over the Gram-positive bacteria)” value in series [6] (setting [7]) is 0.125 to 2 µg/mL. Moreover, in the series on human red blood cells (negative control), the “Hemolysis at concentrations up to 100 μg mL^−1” value is “no hemolysis”.
As for melittin [reference compound], the “Hemolysis at 1.25 μg mL^−1” value with human red blood cells (with and without 0.002% polysorbate 80, positive control) is 26–30%.
On to `CC[C@H](C)[C@H](NC(=O)[C@@H](Cc1ccccc1)NC)C(=O)N[C@@H](CO)C(=O)N[C@H](CCC(N)=O)C(=O)N[C@@H](C(=O)N[C@H](C(=O)N[C@@H](CO)C(=O)N[C@H]1C(=O)N[C@@H](C)C(=O)N[C@@H](CCCCN)C(=O)N[C@@H]([C@@H](C)CC)C(=O)O[C@H]1C)[C@@H](C)CC)[C@@H](C)CC` [Lys10–teixobactin], for which the “MICs (range over the Gram-positive bacteria)” value in series [6] (setting [7]) lay within 0.25 to 2 µg/mL; in series [6] (without polysorbate 80) it was 2 to 4 µg/mL. The “Effect of 0.002% polysorbate 80 on the hemolytic activity” value in the series on human red blood cells is recorded as “no effect”.
Turning to `CC[C@H](C)[C@H](NC(=O)[C@@H](Cc1ccccc1)NC)C(=O)N[C@@H](CO)C(=O)N[C@H](CCC(N)=O)C(=O)N[C@@H](C(=O)N[C@H](C(=O)N[C@@H](CO)C(=O)N[C@H]1C(=O)N[C@@H](C)C(=O)N[C@@H](CC(C)C)C(=O)N[C@@H]([C@@H](C)CC)C(=O)O[C@H]1C)[C@@H](C)CC)[C@@H](C)CC` [Leu10–teixobactin], the “MIC Staphylococcus aureus (MRSA) ATCC 700698” value in series [3] (ATCC 700698) is 2 ^a μg mL^−1. Also, the “Effect of 0.002% polysorbate 80 on the hemolytic activity” value in the series on human red blood cells is reported as “no effect”.
